Patent EP0016746A1, “New therapeutically active spirocycloalkylamines and pharmaceutical preparations comprising such compounds” (priority 1979, dated 1980)

Legend:
[1] = tested on: central dopamine (DA) receptors; experiment: Blockade of apomorphine induced stereotypies and hyperactivity in rats; assay type: in vivo, Male Sprague-Dawley rats; details: for ED50 Hyper-activity / ED50 Stereo-typies: i.p. 60 min prior to apomorphine hydrochloride 1 mg/kg s.c.; for ED50 Hyper-activity: dose reducing number of animals showing hyperactivity by 50% over 60 min observation; for ED50 Stereo-typies: dose reducing strength of stereotypies by 50% over 60 min observation
From the text: The DA receptor blockade as measured by different in vitro anc in vivo techniques correlate roughly with the antipsychotic efficacy. The blockade of the behavioural effects induced by the DA receptor agonist apomorphine is highly correlated to the antipsychotic effect of various neuroleptics. The ability of potential neuroleptics to block the apomorphine induced behaviours may thus be a valuable predictor of the anti- psychotic efficacy in man.
Male Sprague-Dawley rats, weighing 250-300 g, were used. […] The compounds were injected intraperitoneally 60 min. prior to apomorphine hydrochloride (1 mg/kg dissolved in saline), which was injected subcutaneously into the neck. […] Directly after the injection the animals were placed in the cages, one in each cage. Scoring of the stereotypies was performed by a modified version (Fuxe et al. in Rhinencephale Neurotransmetteurs et Psychoses, by G. Masson, Paris 1977, p. 253) of the system introduced by Costall and Naylor (Eur. J. Pharmacol. 24 8 (1973).
The number of animals, displaying hyperactivity caused by apomorphine, was scored. Each group consisted of 6-8 animals. Saline controls were always run simultaneously. The EO50's for stereotypies are the doses which reduce the strength of the stereotypies by 50% over the observation period of 60 min. The Ed50's for hyperactivity are the doses which reduce the number of animals showing hyperactivity by 50% over the observation period of 60 min. EO50's were calculated from log dose-curves from 4-6 levels with 6-8 animals per dose level. The test compounds were dissolved in saline or water.

[2] = Heart effects: arterial blood pressure, heart rate and electrocardiograms after consecutive increasing intravenous doses in restrained rats; assay type: in vivo, Male Sprauge-Dawley rats; details: for Minimum doses causing changes in: Cardiogram intervals PR / Minimum doses causing changes in: Cardiogram intervals QRS / Minimum doses causing changes in: Cardiogram intervals QT / Minimum doses causing changes in: Heart rate (Decrease) / Minimum doses causing changes in: Mean arterial blood pressure (Decrease): change of more than 15% from values before administration
Protocol: Male Sprauge-Dawley rats weighing 290-360 grams were used. The animals were prepared for recording the arterial blood pressure through a catheter implanted into the abdominal aorta and for injection of drugs through a catheter implanted into the abdominal vena cava. Both catheters were exteriorized at the base of the neck. At least five days were allowed for recovery after the operation.
The animals were kept immobilized in restraining cages during the experiment. The arterial blood pressure was continuously monitored on a Grass Model 7 Polygraph via a Statham P23Gc transducer. Electrocardiograms were taken from subcutaneously placed thin needle electrodes and recorded on a Mingograph 34 (Elema-Schänander AB, Sweden).
Groups of rats were given consecutive increasing intravenous doses of the test compounds from the dose scale: 0.25, 0.5, 1, 2, 4, 8, 16, 32 and 64 […]. The test compounds were injected over a period of 30 seconds at an interval of five minutes at doses of 0.25-8 […] and with an interval of 15 minutes at higher dose ranges.
The minimum doses that caused changes in mean arterial blood pressure, heart rate, PR, QRS and QT intervals of more than 15% from values before administration were arbitrarily defined as a drug effect.

[3] = i.p., rats, comparison in words

Question: What does the source list for `CN1CCN(C2=Nc3cc(Cl)ccc3Nc3ccccc32)CC1` [Clozapine, reference compound]?
Answer: ED50 Hyper-activity [1]: 26 µmol/kg; ED50 Stereo-typies [1]: 104 µmol/kg

Question: Which results are given for `OCCN1CCN(C2C=CC3(CC2)c2ccccc2CCc2ccc(Cl)cc23)CC1` (stereo not shown) [Example 4]?
Answer: Minimum doses causing arrhythmias (Second degree AV-block) [2]: 64 µmol/kg; Minimum doses causing changes in: Cardiogram intervals PR [2]: 32 µmol/kg; Minimum doses causing changes in: Cardiogram intervals QRS [2]: 16 µmol/kg; Minimum doses causing changes in: Cardiogram intervals QT [2]: 16 µmol/kg; Minimum doses causing changes in: Heart rate (Decrease) [2]: 16 to 32 µmol/kg; Minimum doses causing changes in: Mean arterial blood pressure (Decrease) [2]: 8 µmol/kg; ED50 Hyper-activity [1]: 24 µmol/kg; ED50 Stereo-typies [1]: 70 µmol/kg; potency to block apomorphine induced hyperactivity compared with clozapine [1, 3]: as potent as clozapine; potency to block the stereotypies compared with clozapine [1, 3]: more potent than clozapine

Question: With `CN(C)C1C=CC2(CC1)c1ccccc1CCc1ccc(Cl)cc12` (stereo not shown) [-N(CH3)2, reference compound] as the compound, how does the “Minimum doses causing arrhythmias (Second degree AV-block)” value [2] read?
Answer: 2 to 4 µmol/kg

Question: What about the “Minimum doses causing changes in: Cardiogram intervals PR” value [2] of the same compound?
Answer: 2 µmol/kg

Question: And the “Minimum doses causing changes in: Cardiogram intervals QRS” value [2]?
Answer: >4 µmol/kg

Question: And the “Minimum doses causing changes in: Cardiogram intervals QT” value [2]?
Answer: 4 µmol/kg

Question: And the “Minimum doses causing changes in: Heart rate (Decrease)” value [2]?
Answer: 2 µmol/kg

Question: And the “Minimum doses causing changes in: Mean arterial blood pressure (Decrease)” value [2]?
Answer: 4 µmol/kg

Question: And the “ED50 Hyper-activity” value [1]?
Answer: 6.4 µmol/kg

Question: And the “ED50 Stereo-typies” value [1]?
Answer: 35 µmol/kg

Question: Which results are given for `CN(C)CCCN1c2ccccc2Sc2ccc(Cl)cc21` [Chlorpromazine, reference compound]?
Answer: ED50 Hyper-activity [1]: 6.2 µmol/kg; ED50 Stereo-typies [1]: 6.2 µmol/kg

Question: For `CNC1C=CC2(CC1)c1ccccc1CCc1ccc(Cl)cc12` (stereo not shown) [Example 3, 3-Chloro-10,11-dihydro-N-methylspiro-[5H-dibenzo[a,d]-cyclohBptene-5,1'-cyclohex-2-Bn]-4'-amine], which “Minimum doses causing arrhythmias (Second degree AV-block)” value [2] is on record?
Answer: 16 µmol/kg

Question: What about the “Minimum doses causing changes in: Cardiogram intervals PR” value [2] of the same compound?
Answer: 16 µmol/kg

Question: What about the “Minimum doses causing changes in: Cardiogram intervals QRS” value [2] of the same compound?
Answer: 8 µmol/kg

Question: And the “Minimum doses causing changes in: Cardiogram intervals QT” value [2]?
Answer: 16 µmol/kg

Question: And the “Minimum doses causing changes in: Heart rate (Decrease)” value [2]?
Answer: 16 µmol/kg

Question: What about the “Minimum doses causing changes in: Mean arterial blood pressure (Decrease)” value [2] of the same compound?
Answer: 8 to 16 µmol/kg

Question: And the “ED50 Hyper-activity” value [1]?
Answer: 15 µmol/kg

Question: And the “ED50 Stereo-typies” value [1]?
Answer: 65 µmol/kg

Question: What about the “activity against apomorphine induced behaviours (in words)” value ([1]; i.p., rats, summary of Table 1) of the same compound?
Answer: active
